Results on one molecule are retold here after patent US12616201B2, “Herbicidal compositions comprising isoxaflutole” (BASF SE, priority 2024, dated 2026).

For one test, the system named is HORVW. The test can be described thus: Post-emergence application in field trials, HORVW. In kind it is in vivo, Hordeum vulgare. On the procedure:
(§1) In the examples below, using the method of S. R. Colby (1967) “Calculating synergistic and antagonistic responses of herbicide combinations”, Weeds 15, p. 22ff., the value E, which is expected if the activity of the individual active compounds is only additive, was calculated:
(§2) [formula] • where • X=percent activity using active herbicide A at an application rate a; • Y=percent activity using active herbicide B (i.e. isoxaflutole) at an application rate b; • E=expected activity (in %) by A+B at application rates a+b.
(§3) If the value found experimentally is higher than the value E calculated according to Colby, a synergistic effect is present.
(§4) On field test sites, natural weed infestation or seeded weeds were treated post-emergence of the weeds.
(§5) In the field trials, the weeds were treated as indicated below.
(§6) In the following experiments, the herbicidal activity for the individual herbicidal compositions (solo and mixture applications) was assessed at the indicated days after treatment (DAT). The assessments for the damage on undesired weeds caused by the composition was carried out using a scale from 0 to 100%, compared to the untreated control plants. Here, 0 means no damage and 100 means complete destruction of the plants.
(§7) Herbicide A-1, isoxaflutole (240 g/l SC), saflufenacil (342 g/l) and pyroxasulfone were, together with addition of 0.25 v/v % MSO (methylated sed oil) as adjuvant, formulated in water as distribution medium (water volume 200 l/ha) and sprayed with commercial flat fan nozzles.

For another test, the system named is Lolium multiflorum. The test can be described thus: Post-emergence application in field trials, LOLMU. In kind it is in vivo. On the procedure:
as §1, §2, §3, §4, §5, §6, §7

The next test relates to Amaranthus retroflexus. The test can be described thus: Post-emergence application in field trials, AMARE. The following applies: 7 DAT. In kind it is in vivo. How it is done: as §1, §2, §3, §4, §5, §6
(§8) Herbicide A-1 and isoxaflutole (240 g/l SC, Balance Flexx®) were, together with addition of 0.25 v/v % MSO (methylated sed oil) as adjuvant, formulated in water as distribution medium (water volume 200 l/ha) and sprayed with commercial flat fan nozzles.
as §7

The test system of another test is Chenopodium album. The test can be described thus: Post-emergence application in field trials, CHEAL. In kind it is in vivo. The following applies: Table 5.22; 7 DAT; height 10-25 cm; C-19 70 g ai/ha. How it is done:
as §1, §2, §3, §4, §5
In the following experiments, the herbicidal activity for the individual herbicidal compositions (solo and mixture applications) was assessed at the indicated days after treatment (DAT). The assessments for the damage on undesired weeds caused by the composition was carried out using a scale from 0 to 100%, compared to the untreated control plants. Here, 0 means no damage and 100 means complete destruction of the plants. […]

For the next test, the system named is Echinochloa crus-galli. The test can be described thus: Post-emergence application in field trials, ECHCG. In kind it is in vivo. On the procedure: as §1, §2, §3, §4, §5, §6
(§9) Herbicide A-1 and isoxaflutole (240 g/l SC) were, together with addition of 0.25 v/v % MSO (methylated sed oil) as adjuvant, formulated in water as distribution medium (water volume 200 l/ha) and sprayed with commercial flat fan nozzles.
as §8
(§10) Herbicide A-1, isoxaflutole (240 g/l SC) and saflufenacil (342 g/l) were, together with addition of 0.25 v/v % MSO (methylated sed oil) as adjuvant, formulated in water as distribution medium (water volume 200 l/ha) and sprayed with commercial flat fan nozzles.
as §7

The next test deals with Zea mays. The test can be described thus: Post-emergence application in field trials, ZEAMX. In kind it is in vivo. On the procedure:
as §1, §2, §3, §4, §5, §6, §9, §8, §10, §7

[1] abbreviates: Table 5.23, 21 DAT, height 20-25 cm, C-19 70 g ai/ha.

For `Cn1nc(C(F)(F)F)c(CS(=O)(=O)C2=NOC(C)(C)C2)c1OC(F)F` [C-19, pyroxasulfone], the “% herbicidal activity” value was found to be 0% in the test on HORVW (Table 5.2, HORVW height 20-25 cm, 21 DAT, 70 g ai/ha); 0% with HORVW (setting [1]); 0% in the test on HORVW (Table 5.24, 28 DAT, height 20-25 cm, C-19 70 g ai/ha); 0% with HORVW (Table 5.3, HORVW height 20-25 cm, 28 DAT, 70 g ai/ha); 0% in the test on HORVW (Table 5.5, HORVW height 20-25 cm, 21 DAT, 70 g ai/ha); 0% in the test with HORVW (Table 5.6, HORVW height 20-25 cm, 28 DAT, 70 g ai/ha). For the same molecule, the “% herbicidal activity” value with Lolium multiflorum (Table 5.1, LOLMU height 20-25 cm, 7 DAT, 70 g ai/ha) is given as 20%; in the test with Lolium multiflorum (Table 5.22, 7 DAT, height 20-25 cm, C-19 70 g ai/ha), 20%; in the test with Lolium multiflorum (setting [1]), 40%; in the test with Lolium multiflorum (Table 5.4, LOLMU height 20-25 cm, 7 DAT, 70 g ai/ha), 20%; with Amaranthus retroflexus (Table 5.22, height 8-20 cm, C-19 70 g ai/ha) it was 10%; with Amaranthus retroflexus (Table 5.4, AMARE height 8-20 cm, 70 g ai/ha), 10%. For the same molecule, the “% herbicidal activity” value in the test with Chenopodium album turned out to be 10%; in the test with Echinochloa crus-galli (Table 5.23, 21 DAT, height 15-20 cm, C-19 70 g ai/ha), 40%; with Echinochloa crus-galli (Table 5.24, 28 DAT, height 15-20 cm, C-19 70 g ai/ha) it was 30%; in the test with Echinochloa crus-galli (Table 5.4, ECHCG height 15-20 cm, 7 DAT, 70 g ai/ha), 20%; in the test with Zea mays (Table 5.10, 7 DAT, height 25-30 cm, C-19 70 g ai/ha), 5%; in the test on Zea mays (Table 5.22, 7 DAT, height 25-30 cm, C-19 70 g ai/ha) it was 5%. Further, the “% herbicidal activity” value with Zea mays (Table 5.23, 21 DAT, height 25-30 cm, C-19 70 g ai/ha) was 4%; in the test on Zea mays (Table 5.24, 28 DAT, height 25-30 cm, C-19 70 g ai/ha), 0%; in the test with Zea mays (Table 5.4, ZEAMX height 25-30 cm, 7 DAT, 70 g ai/ha), 5%; in the test on Zea mays (Table 5.5, ZEAMX height 25-30 cm, 21 DAT, 70 g ai/ha) it was 4%; in the test with Zea mays (Table 5.6, ZEAMX height 25-30 cm, 28 DAT, 70 g ai/ha) it was 0%.
